Measured values as given in ChEMBL document CHEMBL3608201, “Synthesis and biological evaluation of levofloxacin core-based derivatives with potent antibacterial activity against resistant Gram-positive pathogens” (Bioorg Med Chem Lett, 2015).
Converted amounts (≈) assume the structure as drawn.

How the values were obtained:
Staphylococcus aureus [1] = experiment: Antimicrobial activity against Staphylococcus aureus ATCC 25923 by standard broth microdilution method; format: functional
Staphylococcus aureus [2] = experiment: Antimicrobial activity against methicillin-resistant Staphylococcus aureus clinical isolates by standard broth microdilution method; format: functional
Staphylococcus aureus [3] = experiment: Antimicrobial activity against levofloxacin-resistant Staphylococcus aureus clinical isolates by standard broth microdilution method; format: functional
Streptococcus pneumoniae [4] = experiment: Antimicrobial activity against Streptococcus pneumoniae ATCC 49619 by standard broth microdilution method; format: functional
Streptococcus pneumoniae [5] = experiment: Antimicrobial activity against penicillin-resistant Streptococcus pneumoniae clinical isolates by standard broth microdilution method; format: functional
Streptococcus pyogenes [6] = experiment: Antimicrobial activity against Streptococcus pyogenes ATCC 19615 by standard broth microdilution method; format: functional
[7] = test system: Staphylococcus epidermidis; experiment: Antimicrobial activity against Staphylococcus epidermidis ATCC 12228 by standard broth microdilution method; format: functional
[8] = test system: Staphylococcus epidermidis; experiment: Antimicrobial activity against methicillin-resistant Staphylococcus epidermidis clinical isolates by standard broth microdilution method; format: functional
Escherichia coli [9] = experiment: Antimicrobial activity against Escherichia coli ATCC 25922 by standard broth microdilution method; format: functional
Escherichia coli [10] = experiment: Antimicrobial activity against ciprofloxacin-resistant Escherichia coli clinical isolates by standard broth microdilution method; format: functional
Pseudomonas aeruginosa = experiment: Antimicrobial activity against Pseudomonas aeruginosa ATCC 27853 by standard broth microdilution method; format: functional
Staphylococcus aureus [11] = experiment: Potency index, ratio of MIC for ciprofloxacin to MIC for test compound against Staphylococcus aureus ATCC 25923 by standard broth microdilution method; format: functional
Staphylococcus aureus [12] = experiment: Potency index, ratio of MIC for moxifloxacin to MIC for test compound against Staphylococcus aureus ATCC 25923 by standard broth microdilution method; format: functional
[13] = Aqueous solubility of the compound in water; format: physicochemical
Streptococcus pneumoniae [14] = experiment: Potency index, ratio of MIC for ciprofloxacin to MIC for test compound against penicillin-resistant Streptococcus pneumoniae clinical isolates by standard broth microdilution method; format: functional
Streptococcus pneumoniae [15] = experiment: Potency index, ratio of MIC for levofloxacin to MIC for test compound against penicillin-resistant Streptococcus pneumoniae clinical isolates by standard broth microdilution method; format: functional
Streptococcus pyogenes [16] = experiment: Potency index, ratio of MIC for ciprofloxacin to MIC for test compound against Streptococcus pyogenes ATCC 19615 by standard broth microdilution method; format: functional
Streptococcus pyogenes [17] = experiment: Potency index, ratio of MIC for levofloxacin to MIC for test compound against Streptococcus pyogenes ATCC 19615 by standard broth microdilution method; format: functional
Streptococcus pneumoniae [18] = experiment: Potency index, ratio of MIC for penicillin to MIC for test compound against penicillin-resistant Streptococcus pneumoniae clinical isolates by standard broth microdilution method; format: functional
Streptococcus pyogenes [19] = experiment: Potency index, ratio of MIC for penicillin to MIC for test compound against Streptococcus pyogenes ATCC 19615 by standard broth microdilution method; format: functional
Staphylococcus aureus [20] = experiment: Potency index, ratio of MIC for moxifloxacin to MIC for test compound against methicillin-resistant Staphylococcus aureus clinical isolates by standard broth microdilution method; format: functional
[21] = Toxicity in ICR mouse administered as single intravenous dose; format: organism-based; conditions: in vivo
[22] = AUC (0 to infinity) in beagle dog at 18.8 mg/kg, iv administered as single dose; format: ADME, organism-based, Canis lupus familiaris; parameters: dose 18.8 mg/kg, time infinity, route intravenous; conditions: in vivo
[23] = Elimination half life in beagle dog at 18.8 mg/kg, iv administered as single dose; format: ADME, organism-based, Canis lupus familiaris; conditions: in vivo, read-out: beta t1/2 (converted)
[24] = Tmax in beagle dog at 18.8 mg/kg, iv administered as single dose; format: ADME, organism-based, Canis lupus familiaris; conditions: in vivo
[25] = Plasma clearance in beagle dog at 18.8 mg/kg, iv administered as single dose; format: ADME, organism-based, Canis lupus familiaris
[26] = Volume of distribution in beagle dog at 18.8 mg/kg, iv administered as single dose; format: ADME, organism-based, Canis lupus familiaris; conditions: in vivo
[27] = Cmax in beagle dog at 18.8 mg/kg, iv administered as single dose; format: ADME, organism-based, Canis lupus familiaris; parameters: dose 18.8 mg/kg, route intravenous; conditions: in vivo
Staphylococcus aureus [28] = experiment: Potency index, ratio of MIC for levofloxacin to MIC for test compound against methicillin-resistant Staphylococcus aureus clinical isolates by standard broth microdilution method; format: functional

SMILES	MIC (Staphylococcus aureus [1]) [µg/mL]	MIC (Staphylococcus aureus [2]) [µg/mL]	MIC (Staphylococcus aureus [3]) [µg/mL]	MIC (Streptococcus pneumoniae [4]) [µg/mL]	MIC (Streptococcus pneumoniae [5]) [µg/mL]	MIC (Streptococcus pyogenes [6]) [µg/mL]	MIC [7] [µg/mL]	MIC [8] [µg/mL]	MIC (Escherichia coli [9]) [µg/mL]	MIC (Escherichia coli [10]) [µg/mL]	MIC (Pseudomonas aeruginosa) [µg/mL]	other results
C[C@H]1COc2c(N3CCC(O)CC3)c(F)cc3c(=O)c(C(=O)O)cn1c23	0.031 (≈ 0.0856 µM)	1 (≈ 2.76 µM)	0.5 (≈ 1.38 µM)	0.125 (≈ 0.345 µM)	0.031 (≈ 0.0856 µM)	0.0625 (≈ 0.172 µM)	0.031 (≈ 0.0856 µM)	0.5 (≈ 1.38 µM)	0.125 (≈ 0.345 µM)	0.25 (≈ 0.69 µM)	2 (≈ 5.52 µM)	Ratio (Staphylococcus aureus [11]): 16; Ratio (Staphylococcus aureus [12]): 2; solubility [13]: 650 µg/mL (≈ 1790 µM)
C[C@H]1COc2c(N3CCC(O)CC3)c(F)cc3c(=O)c(C(=O)O)cn1c23.N=C(N)NCCC[C@H](N)C(=O)O.O	0.031	1	0.25	0.125	≤ 0.016	≤ 0.016	0.031	1	0.125	0.25	2	Ratio (Streptococcus pneumoniae [14]): 32; Ratio (Streptococcus pneumoniae [15]): 32; Ratio (Streptococcus pyogenes [16]): 32; Ratio (Streptococcus pyogenes [17]): 32; Ratio (Streptococcus pneumoniae [18]): 64; Ratio (Streptococcus pyogenes [19]): 64; Ratio (Staphylococcus aureus [20]): 4; solubility [13]: 5330 µg/mL; LD50 [21]: 1400 mg/kg; AUC(0-inf) [22]: 27000 ng·h/mL; half-life [23]: 3.25 h; Tmax [24]: 4.8 min; clearance [25]: 11.6 mL/min/kg; Vd [26]: 3.27 L/kg; Cmax [27]: 15700 ng/mL
C[C@H]1COc2c(N3CCC(O)CC3)c(F)cc3c(=O)c(C(=O)[O-])cn1c23.[Na+]	0.0625	4	2	0.5	0.125	0.125	0.0625	2	0.25	0.5	2	
C[C@H]1COc2c(N3CCC(O)CC3)c(F)cc3c(=O)c(C(=O)[O-])cn1c23.[K+]	0.0625	8	4	0.5	0.25	0.25	0.0625	2	0.5	1	2	
C[C@H]1COc2c(N3CC[C@@H](O)C3)c(F)cc3c(=O)c(C(=O)O)cn1c23	0.0625 (≈ 0.179 µM)	4 (≈ 11.5 µM)	2 (≈ 5.74 µM)	0.25 (≈ 0.718 µM)	0.5 (≈ 1.44 µM)	0.25 (≈ 0.718 µM)	0.0625 (≈ 0.179 µM)	2 (≈ 5.74 µM)	0.125 (≈ 0.359 µM)	0.5 (≈ 1.44 µM)	8 (≈ 23 µM)	
C[C@H]1COc2c(N3CC[C@H](O)C3)c(F)cc3c(=O)c(C(=O)O)cn1c23	0.031 (≈ 0.089 µM)	1 (≈ 2.87 µM)	0.25 (≈ 0.718 µM)	2 (≈ 5.74 µM)	2 (≈ 5.74 µM)	2 (≈ 5.74 µM)	0.031 (≈ 0.089 µM)	1 (≈ 2.87 µM)	≤ 0.016	0.0625 (≈ 0.179 µM)	1 (≈ 2.87 µM)	Ratio (Staphylococcus aureus [20]): 4; Ratio (Staphylococcus aureus [28]): 32
C[C@H]1COc2c(N3CC[C@H](O)C3)c(F)cc3c(=O)c(C(=O)O)cn1c23.O	0.031	2	0.25	0.125	≤ 0.016	≤ 0.016	0.125	1	0.031	0.0625	1	solubility [13]: 370 µg/mL
C[C@H]1COc2c(N3CC[C@H](O)C3)c(F)cc3c(=O)c(C(=O)[O-])cn1c23.[Na+]	0.0625	4	2	4	4	4	0.125	2	0.0625	0.25	2	
C[C@H]1COc2c(N3CC[C@H](O)C3)c(F)cc3c(=O)c(C(=O)[O-])cn1c23.[K+]	0.0625	4	2	8	4	4	0.5	4	0.125	0.5	4	
C[C@H]1COc2c(N3CC(O)C3)c(F)cc3c(=O)c(C(=O)O)cn1c23	0.0625 (≈ 0.187 µM)	8 (≈ 23.9 µM)	1 (≈ 2.99 µM)	0.25 (≈ 0.748 µM)	0.5 (≈ 1.5 µM)	0.125 (≈ 0.374 µM)	0.0625 (≈ 0.187 µM)	2 (≈ 5.98 µM)	0.125 (≈ 0.374 µM)	0.5 (≈ 1.5 µM)	4 (≈ 12 µM)	
O=C(O)c1cn2c3c(c(N4CCC(O)CC4)c(F)cc3c1=O)OC[C@@H]2CF	0.0625 (≈ 0.164 µM)	2 (≈ 5.26 µM)	0.5 (≈ 1.31 µM)	0.125 (≈ 0.329 µM)	0.031 (≈ 0.0815 µM)	0.031 (≈ 0.0815 µM)	0.0625 (≈ 0.164 µM)	1 (≈ 2.63 µM)	1 (≈ 2.63 µM)	2 (≈ 5.26 µM)	2 (≈ 5.26 µM)	
O=C(O)c1cn2c3c(c(N4CC[C@@H](O)C4)c(F)cc3c1=O)OC[C@@H]2CF	0.25 (≈ 0.682 µM)	4 (≈ 10.9 µM)	2 (≈ 5.46 µM)	0.5 (≈ 1.36 µM)	0.25 (≈ 0.682 µM)	0.0625 (≈ 0.171 µM)	0.0625 (≈ 0.171 µM)	2 (≈ 5.46 µM)	0.125 (≈ 0.341 µM)	1 (≈ 2.73 µM)	2 (≈ 5.46 µM)	
O=C(O)c1cn2c3c(c(N4CC[C@H](O)C4)c(F)cc3c1=O)OC[C@@H]2CF	0.031 (≈ 0.0846 µM)	1 (≈ 2.73 µM)	0.5 (≈ 1.36 µM)	0.125 (≈ 0.341 µM)	0.031 (≈ 0.0846 µM)	≤ 0.016	0.031 (≈ 0.0846 µM)	0.5 (≈ 1.36 µM)	0.25 (≈ 0.682 µM)	0.5 (≈ 1.36 µM)	1 (≈ 2.73 µM)	solubility [13]: 440 µg/mL (≈ 1200 µM)
O=C(O)c1cn2c3c(c(N4CC(O)C4)c(F)cc3c1=O)OC[C@@H]2CF	0.125 (≈ 0.355 µM)			0.25 (≈ 0.71 µM)		0.0625 (≈ 0.177 µM)	0.0625 (≈ 0.177 µM)		0.25 (≈ 0.71 µM)		4 (≈ 11.4 µM)	
O=C(O)c1cn(C2CC2)c2cc(N3CCNCC3)c(F)cc2c1=O [CIPROFLOXACIN]				2 (≈ 6.04 µM)		0.5 (≈ 1.51 µM)	0.0625 (≈ 0.189 µM)		≤ 0.016			
C[C@H]1COc2c(N3CCN(C)CC3)c(F)cc3c(=O)c(C(=O)O)cn1c23.C[C@H]1COc2c(N3CCN(C)CC3)c(F)cc3c(=O)c(C(=O)O)cn1c23.O [LEVOFLOXACIN]	0.25	32	4			0.5	0.125	8	≤ 0.016	8		LD50 [21]: 358 mg/kg
COc1c(N2C[C@@H]3CCCN[C@@H]3C2)c(F)cc2c(=O)c(C(=O)O)cn(C3CC3)c12 [MOXIFLOXACIN]				0.25 (≈ 0.623 µM)		0.25 (≈ 0.623 µM)	≤ 0.016		0.031 (≈ 0.0772 µM)		4 (≈ 9.96 µM)	
CC1(C)S[C@@H]2[C@H](NC(=O)Cc3ccccc3)C(=O)N2[C@H]1C(=O)O [PENICILLIN G]				1 (≈ 2.99 µM)	1 (≈ 2.99 µM)	1 (≈ 2.99 µM)						
CN[C@H](CC(C)C)C(=O)N[C@H]1C(=O)N[C@@H](CC(N)=O)C(=O)N[C@H]2C(=O)N[C@H]3C(=O)N[C@H](C(=O)N[C@H](C(=O)O)c4cc(O)cc(O)c4-c4cc3ccc4O)[C@H](O)c3ccc(c(Cl)c3)Oc3cc2cc(c3O[C@@H]2O[C@H](CO)[C@@H](O)[C@H](O)[C@H]2O[C@H]2C[C@](C)(N)[C@H](O)[C@H](C)O2)Oc2ccc(cc2Cl)[C@H]1O [VANCOMYCIN]				0.25 (≈ 0.173 µM)	0.125 (≈ 0.0863 µM)	0.0625 (≈ 0.0431 µM)						
